Experimental data as given in patent publication US11439650B2, “Thermo-kinetic mixing for pharmaceutical applications” (BOARD OF REGENTS, THE UNIVERSITY OF TEXAS SYSTEM, priority 2007, dated 2022).
Each block holds one compound with its values, some of them ahead of it.

Key:
[1] = DSC / modulated DSC glass transition analysis; format: physicochemical; conditions: DSC/mDSC, 10° C./min
Protocol: Differential Scanning calorimetry (DSC). DSC analysis was conducted using a TA Instruments Model 2920 DSC (New Castle, Del.) equipped with a refrigerated cooling system. Samples were weighed to 15±5 mg in aluminum crimped pans (Kit 0219-0041, Perkin-Elmer Instruments, Norwalk, Conn.). For the KTZ dispersions in Methocel™ E50 and Kollidon® 30 the samples were heated at a ramp rate of 10° C./min from 5 to 215° C. with a modulation temperature amplitude of 0.5° C. and a modulation period of 40 seconds for all studies. For the IND and KTZ dispersions in […]® L 100-55 the samples were analyzed by conventional, non-modulated DSC at a ramp rate of 10° C./min from 5 to 200° C. Ultrahigh purity nitrogen was used as the purge gas at a flow rate of 40 mL/min. All data analyses were performed using TA Universal Analysis 2000 software. The thermogram for amorphous KTZ, used in the DSC analysis of the solid dispersions formulations of KTZ in Methocel™ E50 and Kollidon® 30 was obtained on a second heating of crystalline KTZ following an initial heating to 215° C. followed by rapid cooling (20° C./min) to 5° C. The thermograms of Methocel™ E50 and Kollidon® 30 were obtained by first run DSC following preheating of the polymer powders to 90° C. for 15 minutes in an MF-50 model moisture analyzer (AND Company Ltd. Encino, Calif.) to expel absorbed moisture.
Modulated Differential scanning calorimetry testing for the griseofulvin products was performed using a TA Instruments Model 2920 DSC (New Castle, Del.) and analyzed using TA Universal Analysis 2000 Software. Samples were accurately weighed to 15±2 mg in aluminum crimped pans. […]
Modulated Differential scanning calorimetry testing of itraconazole:HPMC E5 processed by TKC and by HME was performed using a TA Instruments Model 2920 DSC (New Castle, Del.) and analyzed using TA Universal Analysis 2000 Software. […]
The tested were conducted on a TA Instruments Model 2920 DSC (New Castle, Del.) and analyzed using TA Universal Analysis 2000 Software. […]

[2] = HPLC degradation products and mass balance of hydrocortisone formulation processed by TKC; format: physicochemical
Protocol: Pharmaceutical compositions of hydrocortisone were prepared by TKC, having an ejection temperature of approximately 160° C., and compared to the unprocessed drug substance to evaluate the formation of degradation products induced by processing.
Analytical testing of the hydrocortisone formulation processed by TKC was performed by HPLC using a Phenomenex C18 column and mobile phase of 65:35 methanol:water at a flow rate of 1 ml/min. Degradation products were identified and are described in terms of their retention time under this method.

[3] = neutral pH media; reference (42); cited from earlier work

glass transition temperature (Tg) [1]: 90 °C
SMILES: COC1=CC(=O)C[C@@H](C)[C@]12Oc1c(Cl)c(OC)cc(OC)c1C2=O [amorphous griseofulvin, griseofulvin]

SMILES: CC(=O)N1CCN(c2ccc(OCC3COC(Cn4ccnc4)(c4ccc(Cl)cc4Cl)O3)cc2)CC1 (stereo not drawn) [amorphous KTZ, ketoconazole]
glass transition temperature (Tg) [1]: 45 °C | glass transition temperature (Tg) ([1]; listed as Amorphous KTZ): approximately 45 °C

Impurity - 3.2 ([2]; HPLC retention time 3.2): 0.20% | Impurity - 3.9 ([2]; HPLC retention time 3.9): 0.26% | Impurity - 4.9 ([2]; HPLC retention time 4.9): 0.20% | Impurity - 5.5 ([2]; HPLC retention time 5.5): 0.62% | Impurity - 8.7 ([2]; HPLC retention time 8.7): 0.13%
SMILES: C[C@]12CCC(=O)C=C1CC[C@@H]1[C@@H]2[C@@H](O)C[C@@]2(C)[C@H]1CC[C@]2(O)C(=O)CO [Hydrocortisone, USP, Hydrocortisone]

SMILES: CC(=O)N1CCN(c2ccc(OCC3COC(Cn4ccnc4)(c4ccc(Cl)cc4Cl)O3)cc2)CC1 (stereo not drawn) [KTZ, ketoconazole]
equilibrium (saturation) solubility [3]: 5.98 µg/mL
